According to patent US8841284B2, “Compound having neurite-outgrowing activity” (Lead Chemical Co., Ltd, priority 2009, dated 2014):

Experiments:
[1] = tested on: rat spinal cord dorsal root ganglion neuron; assay: Neurite (axon)-outgrowing activity, rat spinal cord dorsal root ganglion neuron, laminin-coated culture vessel; format: cell-based; conditions: 1 μM; second day of culture; FIG. 9
[2] = tested on: rat spinal cord dorsal root ganglion neuron; assay: Neurite (axon)-outgrowing activity, rat spinal cord dorsal root ganglion neuron, laminin-coated culture vessel; format: cell-based; conditions: fifth day of culture; for Neurite (axon) Density / Neurite (axon) Length / Neurite (axon) Thickness: relative amount, basal medium = 1
Method: Rat spinal cord dorsal root ganglion (Takara Bio Inc.)
Laminin-coated: a well was coated with a culture supernatant containing laminin 5B to be used.
A spinal cord neuron in a frozen state was thawed according to the attached protocol and the neuron was cultured in an NSF-1-added PNBM medium for 2 hours and then in a PNBM medium containing the sample (the compound produced in Example 1).
The dissemination was performed with a spinal cord neuron concentration of 2.5×10^4 cells/0.1 mL/well (96-well-plate).
(§1) The sample (the compound produced in Example 1) was dissolved in DMSO to prepare a 10 mM solution. The 10 mM solution was diluted with DMSO to prepare a 1 mM solution. Further dilution of the solution was performed with a PNBM medium.
(§2) Finally, sample-added media of 0.2 μM concentration and 1 μM concentration were prepared. With respect to the mNGF medium, a 5 ng/mL mNGF-added medium and a 25 ng/mL mNGF-added medium were prepared.
Culture in Laminin-Coated Culture Vessel
A spinal cord neuron can easily outgrow a neurite (axon) and outgrows a neurite even in an additive-free medium.
(§3) On the third day of the culture, the culture medium was exchanged. Photographs of a neuron on the fifth day of the culture are shown in the drawings (a photograph of a neuron on the fifth day of the culture in the basal medium (additive-free) is shown in FIG. 10; a photograph of a neuron on the fifth day of the culture in the neurotrophic factor (NSF-1)-added medium is shown in FIG. 11; and a photograph of a neuron on the fifth day of the culture in the sample-added medium (1 μM concentration) is shown in FIG. 12). Here, the number in Table 2 indicates a relative amount when the value in the basal medium (additive-free) is assumed to be 1.

[3] = tested on: rat fetus (viviparity 17 days) cerebral cortex neuron; assay: Neurite-outgrowing activity, rat fetus cerebral cortex neuron, poly-L-lysine-coated culture vessel; format: cell-based; conditions: for Neurite Density / Neurite Length / Neurite Thickness: relative amount, basal medium = 1
Method: Rat fetus (viviparity 17 days) cerebral cortex neuron (Sumitomo Bakelite Co., Ltd.)
From a frozen cerebral tissue, using an attached protocol and attached reagents, a cerebral cortex neuron was prepared, was cultured in an NSF-1 (neurotrophic factor; name of substance or the like is not disclosed)-added PNBM medium for 2 hours, and then in a PNBM medium containing the sample (the compound produced in Example 1).
The dissemination was performed with a neuron concentration of 2×10^5 cells/0.5 mL/well (24-well-plate).
as §1, §2
Culture in Poly-L-Lysine-Coated Culture Vessel
as §3, with “4;” for “10;”, “5;” for “11;”, “6).” for “12).”, “1” for “2”

## C[C@@H]([C@H]1CC[C@H]2[C@@H]3CCc4cc(O)ccc4[C@H]3CC[C@]12C)[C@H]1CC=C(CO)C(=O)O1 [Example 1, 6-[1-(3-hydroxy-13-methyl-7,8,9,11,12,13,14,15,16,17-decahydro-6H-cyclopenta[a]phenanthren-17-yl)-ethyl]-3-hydroxymethyl-5,6-dihydropyran-2-one]
[1]
  axon outgrowth (in words): the axon outgrew more than in the basal medium (additive-free), but less than in the neurotrophic factor (NSF-1)-added medium
other
  melting point: 248 to 250 °C
[2]; 0.2 μM
  Neurite (axon) Density: 2
  Neurite (axon) Length: 2
  Neurite (axon) Thickness: 1
[2]; 1 μM
  axon length and thickness (in words): the axon outgrew longer but did not become thicker
  Neurite (axon) Density: 2
  Neurite (axon) Length: 2.5
  Neurite (axon) Thickness: 1
[3]; 0.2 μM, fifth day of culture
  Neurite Density: 1
  Neurite Length: 1
  Neurite Thickness: 1
[3]; 1 μM, fifth day of culture
  neurite-outgrowing activity (in words): has a neurite-outgrowing activity
  Neurite Density: 1.5
  Neurite Length: 2
  Neurite Thickness: 2
[3]; 1 μM, second day of culture, FIG. 3
  number of neurites (in words): the number of neurites increased more than in the basal medium (additive-free), but less than in the neurotrophic factor (NSF-1)-added medium

B1: NGF: mNGF2. 5S (alomone labs, PRODUCT#N-100), used as mNGF-added medium (protein, UniProt P01139 122-241, looked up)
Beta-nerve growth factor: SSTHPVFHMGEFSVCDSVSVWVGDKTTATDIKGKEVTVLAEVNINNSVFRQYFFETKCRASNPVESGCRGIDSKHWNSYCTTTHTFVKALTTDEKQAAWRFIRIDTACVCVLSRKATRRG
modifications: Beta-nerve growth factor
notes: mNGF2; 5S (alomone labs, PRODUCT#N-100), used as mNGF-added medium
[2]; 5 ng/mL
  Neurite (axon) Density: 2
  Neurite (axon) Length: 2
  Neurite (axon) Thickness: 1
[2]; 25 ng/mL
  Neurite (axon) Density: 2
  Neurite (axon) Length: 3
  Neurite (axon) Thickness: 2
[3]; 5 ng/mL, fifth day of culture
  Neurite Density: 2
  Neurite Length: 2
  Neurite Thickness: 2
[3]; 25 ng/mL, fifth day of culture
  Neurite Density: 2.5
  Neurite Length: 2
  Neurite Thickness: 2
